These results are taken from the NIST ThermoML archive (doi:10.1021/acs.jced.5b00201).

Numbers after ± are expanded uncertainties.

The nature of the data set: xn = mol fraction of the nth substance listed. The conditions noted are these: 298.2 K, 100 kPa, Liquid, Pycnometric method.

For the molecule `Cc1ccc(-c2ncc(Cl)cc2-c2ccc(S(C)(=O)=O)cc2)cn1` [etoricoxib] + C1COCCO1, the mass density (as a rule, mass per unit of volume) (x1 = 0.07301) stood at 1026.8 ± 0.9 kg/m3.

As for `Cc1ccc(-c2ncc(Cl)cc2-c2ccc(S(C)(=O)=O)cc2)cn1` [etoricoxib] + CC(=O)N(C)C, for the setting “x1 = 0.08112”, the mass density turned out to be 942.7 ± 0.8 kg/m3.

In the case of `Cc1ccc(-c2ncc(Cl)cc2-c2ccc(S(C)(=O)=O)cc2)cn1` [etoricoxib] + CCO, the mass density (x1 = 0.05374) worked out at 819.9 ± 0.7 kg/m3.

As to `Cc1ccc(-c2ncc(Cl)cc2-c2ccc(S(C)(=O)=O)cc2)cn1` [etoricoxib] + CN(C)C=O, the mass density (x1 = 0.06899) was found to be 952.7 ± 0.8 kg/m3. Regarding `Cc1ccc(-c2ncc(Cl)cc2-c2ccc(S(C)(=O)=O)cc2)cn1` [etoricoxib] + C[S+](C)[O-], the mass density (x1 = 0.06044) worked out at 1105.6 ± 1 kg/m3. As to `Cc1ccc(-c2ncc(Cl)cc2-c2ccc(S(C)(=O)=O)cc2)cn1` [etoricoxib] + O, the mass density (x1 = 1.56e-05) was determined as 994.8 ± 0.8 kg/m3. Turning to `Cc1ccc(-c2ncc(Cl)cc2-c2ccc(S(C)(=O)=O)cc2)cn1` [etoricoxib] + OCCCCO, the mass density (x1 = 0.07226) is on record as 1039.8 ± 0.9 kg/m3.
